According to US20230276792A1, “SELECTIVE HERBICIDES BASED ON SUBSTITUTED ISOXAZOLIN CARBOXAMIDES AND CLOQUINTOCET-MEXYL” (Bayer Aktiengesellschaft, priority 2020, published 2023):

Assays:
Assay type in all cases: in vivo
[1] = tested on: spring barley, HORVS Montoya; experiment: Tank-mix post-emergence crop damage, herbicide with and without safener cloquintocet-mexyl, greenhouse; set-up: key to Reduction [Difference]: damage without safener − damage with safener, % points (0–100% scale); details: cloquintocet-mexyl 100 g a.i./ha; for Reduction [%] / Reduction [Difference]: 21 DAT, HER dose 32 g a.i./ha
Protocol: (§1) Seeds of crops (spring wheat, TRZAS; spring barley, HORVS; maize, ZEAMA) were placed in sandy loam soil in peat pots, covered with soil and cultivated in a greenhouse under good growth conditions. Two to three weeks after sowing, the test plants were treated at the 1 to 3-leaf stage. The herbicide/safener active compound combinations according to the invention, formulated as wettable powders or emulsion concentrates, and, in parallel tests, the correspondingly formulated individual active compounds were sprayed onto the green parts of the plants in various dosages using an amount of water of 300 l/ha (converted).
(§2) The pots were returned under good growing conditions in a glasshouse and a visual assessment of herbicidal effects was made at intervals from 1 to 3 weeks after herbicide application (DAT=days after treatment). Assessment was on a percentage basis in comparison with untreated control plants (0%=no injury, 100%=complete kill).
(§3) Reduction [Difference]=herbicide damage without safener−herbicide damage with safener
(§4) Reduction [%]=(Reduction [Difference]*100)/herbicide damage without safener
(§5) a) Plant Species, Variety: HORVS Montoya, Safener (SAF): Cloquintocet-Mexyl

[2] = tested on: spring wheat, TRZAS Triso; experiment: as above; set-up: key to Reduction [Difference]: percentage points of damage: damage without safener minus damage with safener; details: 10 DAT
Protocol: as §1, §2, §3, §4
(§6) b) Plant Species, Variety: TRZAS Triso, Safener (SAF): Cloquintocet-Mexyl

[3] = tested on: spring wheat, TRZAS Triso; experiment: Safener seed treatment, post-emergence herbicide application, crop damage; details: for HER effect + SAF [%]: cloquintocet-mexyl 0, 5 g a.i./kg seed; for HER effect [%]: without safener
Excerpt: (§7) For safener seed treatment trials, sufficient seed amounts of the respective crops (spring wheat (TRZAS); spring barley (HORVS)) were weighed into screw cap glass bottles with a minimum volume trice of the seeds.
(§8) As a first step, specified safeners formulated as wettable powder (WP) or wettable granules (WG) were weighed out for the required dosages (g a.i./kg seed), corresponding to the seed amounts. The safener amounts were mixed with a coloured slurry blind formulation type, pre-diluted with milk at 3.5% fat rate (25 mgs slurry formulation plus 2 ml milk per 10 grams of seed). A tube roller was used for coating. The solutions were gradually pipetted each on the rotating seeds followed by coating for min. 3 hours until all liquid had been soaked up by the seeds. Thereafter, the coated seeds were put flat on open trays for drying over night at room temperature.
(§9) Treated seeds were then placed into pots (7 cm diameter) on the surface of sandy loam, pressed down, flat covered with additional soil and finally covered with sandy soil, also pressed down, watered, and kept under good growth conditions in a greenhouse, until the plants had reached 2-leaf-stage (BBCH 12).
(§10) At that stage, post-emergence application of the specified herbicides was done on: • a) pot sets containing plants with safener-coated seeds as described above, • b) as a reference, pot sets of plants without seed treatment.
(§11) The herbicides were formulated as wettable powder (WP). Equivalent to the spray area, compound amounts were weighed out and diluted related to the water application rate (300 l/ha) to an aqueous suspension plus additive (1 l/ha MERO). Dosage related equivalents were conventionally sprayed on trays with the potted plants.
(§12) After application, the test plants were kept under good growth conditions in a greenhouse. Assessment timings were 10 and 21 days after treatment (DAT) with the herbicide, by visual scoring of the crop damage in % (comparison of untreated with treated plants, either sprayed only with herbicide or with herbicide on plants with treated seeds).
as §3, §4, §6

[4] = tested on: spring barley, HORVS Montoya; experiment: as above; set-up: key to Reduction [Difference]: % crop damage without safener minus % damage with safener; details: cloquintocet-mexyl 0, 5 g a.i./kg seed
Excerpt: as §7, §8, §9, §10, §11, §12, §3, §4, §5

[5] = tested on: spring barley, HORVS Montoya; experiment: Safener seed treatment, pre-emergence herbicide application, crop damage; details: 21 (Final) DAT; HER dose 15 g a.i./ha; cloquintocet-mexyl 0.25 g a.i./kg seed
Protocol: (§13) For the safener seed treatment, sufficient seeds of the respective crops (spring wheat, TRZAS; spring barley, HORVS; maize, ZEAMA) were weighed into screw top glass bottles approximately twice the volume of the seeds.
(§14) The specified safeners, formulated as wettable powder (WP) were weighed out so that the specified rates (g a.i./kg seed) would be obtained, dissolved in water (1 ml water per 10 g of seeds), and added to the seeds to produce a slurry.
(§15) The bottles were capped and then placed in an overhead shaker (set at medium speed for ca. 60 minutes) so that the seeds were evenly coated with the slurry. The bottles were uncapped and the seeds were either placed on paper and dried for an interval of 3-4 hours prior to sowing, or directly sown. Seeds were placed in sandy loam soil in pots of a diameter of 7-8 cm, and covered with soil.
Pre-emergence application of the specified herbicides was done subsequently, on two sets of plants: • a) seed treatment with safener, as described above • b) no safener treatment […]
After application, the test plants were kept in the greenhouse under good growth conditions. At intervals up to 4 weeks after application (=28 days after treatment; DAT), % crop damage observed on the treated plants was scored visually in comparison to control plants that had not received any safener or herbicide treatment. […]

[6] = tested on: spring wheat, TRZAS Triso; experiment: as above; details: cloquintocet-mexyl 0.25 g a.i./kg seed
Protocol: as §13, §14, §15
Pre-emergence application of the specified herbicides was done subsequently, on two sets of plants: • a) seed treatment with safener, as described above • b) no safener treatment
The herbicides were formulated as WP and was sprayed onto the soil surface as an aqueous suspension at an equivalent water application rate of 300 l/ha.
After application, the test plants were kept in the greenhouse under good growth conditions. At intervals up to 4 weeks after application (=28 days after treatment; DAT), % crop damage observed on the treated plants was scored visually in comparison to control plants that had not received any safener or herbicide treatment.
Values in the table below are mean values of at least 2 replicates.
as §3, §4
a) Plant Species, Variety: TRZAS Triso, Safener (SAF): Cloquintocet-Mexyl

[7] = HER dose 32 g a.i./ha, cloquintocet-mexyl 100 g a.i./ha
[8] = HER dose 8 g a.i./ha, cloquintocet-mexyl 50 g a.i./ha
[9] = 11 (Interim) DAT, HER dose 15 g a.i./ha
[10] = 21 (Final) DAT, HER dose 15 g a.i./ha

## COC(=O)C1C=CC(NC(=O)C2(C)CC(c3cccc(F)c3)=NO2)C1 (stereo not shown) [Example 1.20]
[1]
  Reduction [%]: 88%
  Reduction [Difference]: 70
[2]; [7]
  Reduction [%]: 80%
[3]; 10 DAT, HER dose 8 g a.i./ha
  HER effect + SAF [%]: 0%
  HER effect [%]: 20%
[3]; 10 DAT, HER dose 32 g a.i./ha
  HER effect + SAF [%]: 0%
  HER effect [%]: 50%
[4]; 21 DAT, HER dose 32 g a.i./ha
  Reduction [%]: 88%
  Reduction [Difference]: 70

## COCCOC(=O)C1C=CC(NC(=O)C2(C(F)(F)F)CC(c3cc(F)cc(C#N)c3)=NO2)C1 (stereo not shown) [Example 1.2]
[1]; 10 DAT, HER dose 8 g a.i./ha
  HER effect + SAF: 10%
[2]; [8]
  HER effect + SAF: 70%
  Reduction [%]: 22%
[3]; 10 DAT, HER dose 8 g a.i./ha
  HER effect + SAF [%]: 0%
  HER effect [%]: 90%
[3]; 10 DAT, HER dose 32 g a.i./ha
  HER effect + SAF [%]: 10%
  HER effect [%]: 90%
[4]; 10 DAT, HER dose 8 g a.i./ha
  HER effect + SAF: 10%

## C=CC1(C(=O)NC2COC(C(=O)OC)C2)CC(c2cc(C)cc(F)c2)=NO1 (mixture of isomers) [Example 1.71]
[1]
  Reduction [%]: 57%
  Reduction [Difference]: 40
[2]; [7]
  HER effect + SAF: 10%
  Reduction [%]: 88%
  Reduction [Difference]: 75
[3]; 10 DAT, HER dose 8 g a.i./ha
  HER effect + SAF [%]: 0%
  HER effect [%]: 50%
[3]; 10 DAT, HER dose 32 g a.i./ha
  HER effect + SAF [%]: 0%
  HER effect [%]: 85%

## C=CC1(C(=O)NC2COC(C(=O)OC)C2)CC(c2cc(F)cc(F)c2)=NO1 (mixture of isomers) [Example 1.68]
[5]
  Reduction [Difference]: 80
[3]; 21 DAT, HER dose 1 g a.i./ha
  HER effect + SAF [%]: 20%
  HER effect [%]: 80%
[3]; 21 DAT, HER dose 4 g a.i./ha
  HER effect + SAF [%]: 30%
  HER effect [%]: 85%
[6]; 11 (Interim) DAT, HER dose 5 g a.i./ha
  Reduction [Difference]: 45
[6]; [9]
  Reduction [%]: 88%
  Reduction [Difference]: 70
[6]; 21 (Final) DAT, HER dose 5 g a.i./ha
  Reduction [Difference]: 45
[6]; [10]
  Reduction [%]: 94%
  Reduction [Difference]: 80
